Assay results: the supplement of paper PMC10307832

Assays:
Experiment in all cases: relative viability (nuclei count vs DMSO), 5 days (fraction); higher = more cells survive
[1] = system: NCI-H1975
Outline: (§1)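 Each reported value is a median over duplicate plates. It expresses relative viability: treated-well nuclei count divided by vehicle-well nuclei count. Lung cancer cell lines in 1536-well plates were dosed by pin tool a day after seeding, alone with one drug or with a fixed anchor-drug dose plus five library-drug doses (not always all listed) in √10 steps, and nuclei were counted after 5 days.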

[2] = system: NCI-H441
Outline: as §1

[3] = system: NCI-H1666
Outline: as §1

[4] = system: NCI-H3122
Outline: as §1

[5] = system: NCI-H2085
Outline: as §1

[6] = system: NCI-H358
Outline: as §1

[7] = system: NCI-H322M
Outline: as §1

[8] = system: HOP-62
Outline: as §1

[9] = system: NCI-H1755
Outline: as §1

[10] = system: CAL-12T
Outline: as §1

[11] = system: NCI-H2023
Outline: as §1

[12] = system: NCI-H2126
Outline: as §1

[13] = system: COR-L 105
Outline: as §1

[14] = system: ABC-1
Outline: as §1

[15] = system: HCC-78
Outline: as §1

[16] = system: EPLC-272H
Outline: as §1

[17] = system: NCI-H1993
Outline: as §1

[18] = system: NCI-H1915
Outline: as §1

[19] = system: LXF-289
Outline: as §1

[20] = system: EMC-BAC-2
Outline: as §1

[21] = system: HCC-15
Outline: as §1

[22] = system: UMC-11
Outline: as §1

[23] = system: ChaGo-K-1
Outline: as §1

Structure (SMILES): CC1(C)CCC(c2ccc(Cl)cc2)=C(CN2CCN(c3ccc(C(=O)NS(=O)(=O)c4ccc(N[C@H](CCN5CCOCC5)CSc5ccccc5)c(S(=O)(=O)C(F)(F)F)c4)cc3)CC2)C1 [Navitoclax] + O=C(CCCCCCC(=O)Nc1ccccc1)NO [Vorinostat] (partner 1 µM)
- relative viability ([1]; first compound 0.005 µM): 0.718
- relative viability ([1]; first compound 0.01581 µM): 0.765
- relative viability ([1]; first compound 0.05 µM): 0.752
- relative viability ([1]; first compound 0.1581 µM): 0.718
- relative viability ([1]; first compound 0.5 µM): 0.592
- relative viability ([2]; first compound 0.005 µM): 0.651
- relative viability ([2]; first compound 0.01581 µM): 0.961
- relative viability ([2]; first compound 0.05 µM): 0.982
- relative viability ([2]; first compound 0.1581 µM): 0.694
- relative viability ([2]; first compound 0.5 µM): 0.725
- relative viability ([3]; first compound 0.005 µM): 1
- relative viability ([3]; first compound 0.01581 µM): 1.04
- relative viability ([3]; first compound 0.05 µM): 1.03
- relative viability ([3]; first compound 0.1581 µM): 0.999
- relative viability ([3]; first compound 0.5 µM): 1.05
- relative viability ([4]; first compound 0.005 µM): 1.05
- relative viability ([4]; first compound 0.01581 µM): 0.807
- relative viability ([4]; first compound 0.05 µM): 1.06
- relative viability ([4]; first compound 0.1581 µM): 1.02
- relative viability ([4]; first compound 0.5 µM): 0.839
- relative viability ([5]; first compound 0.005 µM): 0.817
- relative viability ([5]; first compound 0.01581 µM): 0.998
- relative viability ([5]; first compound 0.05 µM): 0.568
- relative viability ([5]; first compound 0.1581 µM): 0.844
- relative viability ([5]; first compound 0.5 µM): 0.834
- relative viability ([6]; first compound 0.005 µM): 0.705
- relative viability ([6]; first compound 0.01581 µM): 0.816
- relative viability ([6]; first compound 0.05 µM): 0.689
- relative viability ([6]; first compound 0.1581 µM): 0.652
- relative viability ([6]; first compound 0.5 µM): 0.848
- relative viability ([7]; first compound 0.005 µM): 1.02
- relative viability ([7]; first compound 0.01581 µM): 1.06
- relative viability ([7]; first compound 0.05 µM): 0.908
- relative viability ([7]; first compound 0.1581 µM): 0.843
- relative viability ([7]; first compound 0.5 µM): 0.999
- relative viability ([8]; first compound 0.005 µM): 0.669
- relative viability ([8]; first compound 0.01581 µM): 0.644
- relative viability ([8]; first compound 0.05 µM): 0.618
- relative viability ([8]; first compound 0.1581 µM): 0.529
- relative viability ([8]; first compound 0.5 µM): 0.842
- relative viability ([9]; first compound 0.005 µM): 0.778
- relative viability ([9]; first compound 0.01581 µM): 0.798
- relative viability ([9]; first compound 0.05 µM): 0.543
- relative viability ([9]; first compound 0.1581 µM): 0.728
- relative viability ([9]; first compound 0.5 µM): 0.691
- relative viability ([10]; first compound 0.005 µM): 0.73
- relative viability ([10]; first compound 0.01581 µM): 0.825
- relative viability ([10]; first compound 0.05 µM): 0.901
- relative viability ([10]; first compound 0.1581 µM): 0.806
- relative viability ([10]; first compound 0.5 µM): 0.903
- relative viability ([11]; first compound 0.005 µM): 0.744
- relative viability ([11]; first compound 0.01581 µM): 0.76
- relative viability ([11]; first compound 0.05 µM): 0.659
- relative viability ([11]; first compound 0.1581 µM): 0.557
- relative viability ([11]; first compound 0.5 µM): 0.473
- relative viability ([12]; first compound 0.005 µM): 0.789
- relative viability ([12]; first compound 0.01581 µM): 0.875
- relative viability ([12]; first compound 0.05 µM): 0.795
- relative viability ([12]; first compound 0.1581 µM): 0.761
- relative viability ([12]; first compound 0.5 µM): 0.681
- relative viability ([13]; first compound 0.005 µM): 0.853
- relative viability ([13]; first compound 0.01581 µM): 0.946
- relative viability ([13]; first compound 0.05 µM): 0.858
- relative viability ([13]; first compound 0.1581 µM): 0.778
- relative viability ([13]; first compound 0.5 µM): 0.745
- relative viability ([14]; first compound 0.005 µM): 1.22
- relative viability ([14]; first compound 0.01581 µM): 1.34
- relative viability ([14]; first compound 0.05 µM): 0.725
- relative viability ([14]; first compound 0.1581 µM): 1.41
- relative viability ([14]; first compound 0.5 µM): 1.04
- relative viability ([15]; first compound 0.005 µM): 0.415
- relative viability ([15]; first compound 0.01581 µM): 0.49
- relative viability ([15]; first compound 0.05 µM): 0.429
- relative viability ([15]; first compound 0.1581 µM): 0.431
- relative viability ([15]; first compound 0.5 µM): 0.431
- relative viability ([16]; first compound 0.005 µM): 0.521
- relative viability ([16]; first compound 0.01581 µM): 0.561
- relative viability ([16]; first compound 0.05 µM): 0.292
- relative viability ([16]; first compound 0.1581 µM): 0.385
- relative viability ([16]; first compound 0.5 µM): 0.282
- relative viability ([17]; first compound 0.005 µM): 0.74
- relative viability ([17]; first compound 0.01581 µM): 0.81
- relative viability ([17]; first compound 0.05 µM): 1
- relative viability ([17]; first compound 0.1581 µM): 0.708
- relative viability ([17]; first compound 0.5 µM): 0.703
- relative viability ([18]; first compound 0.005 µM): 0.497
- relative viability ([18]; first compound 0.01581 µM): 0.499
- relative viability ([18]; first compound 0.05 µM): 0.556
- relative viability ([18]; first compound 0.1581 µM): 0.481
- relative viability ([18]; first compound 0.5 µM): 0.424
- relative viability ([19]; first compound 0.005 µM): 0.752
- relative viability ([19]; first compound 0.01581 µM): 0.842
- relative viability ([19]; first compound 0.05 µM): 0.697
- relative viability ([19]; first compound 0.1581 µM): 0.799
- relative viability ([19]; first compound 0.5 µM): 0.814
- relative viability ([20]; first compound 0.005 µM): 0.413
- relative viability ([20]; first compound 0.01581 µM): 0.507
- relative viability ([20]; first compound 0.05 µM): 0.548
- relative viability ([20]; first compound 0.1581 µM): 0.422
- relative viability ([20]; first compound 0.5 µM): 0.418
- relative viability ([21]; first compound 0.005 µM): 0.808
- relative viability ([21]; first compound 0.01581 µM): 0.831
- relative viability ([21]; first compound 0.05 µM): 0.684
- relative viability ([21]; first compound 0.1581 µM): 0.794
- relative viability ([21]; first compound 0.5 µM): 0.809
- relative viability ([22]; first compound 0.005 µM): 0.43
- relative viability ([22]; first compound 0.01581 µM): 0.371
- relative viability ([22]; first compound 0.05 µM): 0.39
- relative viability ([22]; first compound 0.1581 µM): 0.312
- relative viability ([22]; first compound 0.5 µM): 0.148
- relative viability ([23]; first compound 0.005 µM): 0.789
- relative viability ([23]; first compound 0.01581 µM): 0.786
- relative viability ([23]; first compound 0.05 µM): 0.496
- relative viability ([23]; first compound 0.1581 µM): 0.759
- relative viability ([23]; first compound 0.5 µM): 0.781
